The target in test [1] is T1, OAT10/SLC22A13 (Homo sapiens, UniProt Q9Y226). The test can be described thus: inhibition of [[…]-14C]-urate uptake in OAT10-expressing […] cells. Type of test: cell-based.
In test [2] the target is T2, URAT1/SLC22A12 (Homo sapiens, UniProt Q96S37).
T2 construct: full-length human URAT1 wild-type, EGFP-fused (pEGFP-C1)
T2 sequence (Q96S37 1-553): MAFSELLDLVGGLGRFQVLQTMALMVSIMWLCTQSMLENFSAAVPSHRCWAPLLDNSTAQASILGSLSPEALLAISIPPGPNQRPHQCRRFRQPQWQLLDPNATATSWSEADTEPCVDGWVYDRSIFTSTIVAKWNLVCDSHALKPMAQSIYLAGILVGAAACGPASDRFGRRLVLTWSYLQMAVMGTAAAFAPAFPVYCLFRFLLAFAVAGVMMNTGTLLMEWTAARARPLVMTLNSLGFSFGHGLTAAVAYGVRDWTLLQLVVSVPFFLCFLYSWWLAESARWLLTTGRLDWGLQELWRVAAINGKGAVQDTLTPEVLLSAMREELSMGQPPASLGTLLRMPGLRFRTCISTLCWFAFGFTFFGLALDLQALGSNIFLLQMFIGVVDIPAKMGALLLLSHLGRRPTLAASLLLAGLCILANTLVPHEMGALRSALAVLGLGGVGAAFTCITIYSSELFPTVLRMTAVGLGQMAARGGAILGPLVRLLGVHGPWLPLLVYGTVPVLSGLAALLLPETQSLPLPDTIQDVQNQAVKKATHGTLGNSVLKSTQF
The test can be described thus: inhibition of [[…]-14C]-urate uptake in URAT1-expressing […] cells. Type of test: cell-based.

The target in test [3] is T2, URAT1/SLC22A12. As to the kind of experiment: cell-based. The arrangement: species or system 293A; inhibition of [8-14C]-urate uptake by URAT1-expressing 293A cells, concentration-response.
Protocol: Transiently URAT1-expressing 293A cells were subjected to a cell-based urate transport assay, 48 h after transfection. As a transport buffer, Ringer solution, which contains Cl−, or Cl−-free Hanks’ Balanced Salt Solution (HBSS) containing 10 μM [8-14C]-urate was used. […] Data are expressed as the mean ± SD; n = 4.
The target in test [4] is T2, URAT1/SLC22A12. The test can be described thus: inhibition of [[…]-14C]-urate uptake in URAT1-expressing […] cells ([…]). Type of test: cell-based.
Test [5] has as its target T1, OAT10/SLC22A13. The test can be described thus: cell-based. Details: full-length human OAT10 wild-type, EGFP-fused (pEGFP-N1); species or system 293A. The procedure: Calculation of the Half-Maximal Inhibitory Concentration Values  FIGURE 5 Effects of urate-lowering drugs and their reactive metabolites on the urate transport activity of OAT10. (A) OAT10-mediated urate transport activities in the presence or absence of urate-lowering drugs, including their reactive metabolites, at 100 μM or experimentally maximum concentrations (Table 2). AP, allopurinol; OP, oxypurinol; FEB, febuxostat; TOP, topiroxostat; BBR, benzbromarone; 6-OH BBR, 6-hydroxybenzbromarone; DU, dotinurad; LU, lesinurad; PB, probenecid; FF, fenofibrate; LOS, losartan. (B) Comparison of the effects of each compound (10 μM) on the urate transport activities of URAT1 and OAT10. Values are shown as % of vehicle control (only 0.1% dimethyl sulfoxide); data are expressed as the mean ± SD; n = 3–4 (A,B). ^†† p < 0.01 (two-sided t-test). […] The urate transport activities were measured in the presence of each compound at indicated concentrations for 1 min.

Test [6] deals with T1, OAT10/SLC22A13. The test can be described thus: concentration-dependent inhibition of [[…]-14C]-urate uptake in OAT10-expressing […] cells. Type of test: cell-based.

T1 sequence (Q9Y226 whole entry): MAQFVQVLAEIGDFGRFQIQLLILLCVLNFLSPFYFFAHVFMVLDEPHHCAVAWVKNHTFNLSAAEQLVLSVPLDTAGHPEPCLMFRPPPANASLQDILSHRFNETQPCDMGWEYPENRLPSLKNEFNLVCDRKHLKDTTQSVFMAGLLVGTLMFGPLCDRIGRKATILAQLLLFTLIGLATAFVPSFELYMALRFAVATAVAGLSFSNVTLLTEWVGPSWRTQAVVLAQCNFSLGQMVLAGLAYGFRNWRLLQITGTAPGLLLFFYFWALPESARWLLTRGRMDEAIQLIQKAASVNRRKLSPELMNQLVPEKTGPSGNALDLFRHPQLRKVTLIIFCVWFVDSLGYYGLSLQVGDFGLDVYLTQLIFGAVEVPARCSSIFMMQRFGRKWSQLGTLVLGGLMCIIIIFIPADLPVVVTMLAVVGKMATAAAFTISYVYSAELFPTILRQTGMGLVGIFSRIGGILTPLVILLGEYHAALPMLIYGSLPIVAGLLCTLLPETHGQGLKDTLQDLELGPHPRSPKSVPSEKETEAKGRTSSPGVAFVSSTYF

Turning to `CCCCc1nc(Cl)c(CO)n1Cc1ccc(-c2ccccc2-c2nn[nH]n2)cc1` [LOS, losartan], the IC50 in test [1] came to 2.5 µM; in test [2], 11.9 µM.

As to `O=C(c1cc(Cl)c(O)c(Cl)c1)N1CS(=O)(=O)c2ccccc21` [DU, dotinurad], the IC50 came to 0.043 µM in test [3] and 7.7 µM in test [5]. Further, the “inhibition of [8-14C]-urate uptake in URAT1-expressing 293A cells (10 μM)” value in test [4] was “benzbromarone, 6-hydroxybenzbromarone, and dotinurad were more specific to URAT1 than OAT10”.

Regarding `O=C(O)CSc1nnc(Br)n1-c1ccc(C2CC2)c2ccccc12` [LU, lesinurad], the IC50 result in test [6] is “lesinurad inhibited OAT10 and URAT1 comparably”. The “inhibition of [8-14C]-urate uptake in URAT1-expressing 293A cells (10 μM)” value in test [4] is “lesinurad inhibited OAT10 and URAT1 comparably”.
